Results taken from PubChem BioAssay (NCI).
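Five concentrations, 48 hours, 96-well plates. At the TGI there is no net growth.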

Tests used:
Experiment in all cases: inhibition of tumour cell growth, NCI panel, 48 h
[1] = system: OVCAR-8 ovarian
[2] = system: EKVX NSCLC
[3] = system: MDA-MB-435
[4] = system: SK-MEL-28 melanoma
[5] = system: UACC-257 melanoma
[6] = system: SN12C renal
[7] = system: ACHN renal
[8] = system: MCF7 breast
[9] = system: KM12 colon
[10] = system: NCI-H226 lung

Row | Structure (SMILES) | TGI [1] | TGI [2] | TGI [3] | TGI [4] | TGI [5] | TGI [6] | TGI [7] | TGI [8] | TGI [9] | TGI [10]
1 | COc1cc([C@@H]2c3cc4c(cc3[C@H](OC3OC5COC(C(C)C)OC5C(O)C3O)C3COC(=O)[C@@H]32)OCO4)cc(OC)c1OC (stereo not given in full) | 30.1 µM | > 100 µM | > 54.2 µM | > 100 µM | 22.6 µM | > 100 µM | 21.2 µM | 13.2 µM | 18 µM | 12.6 µM
2 | CCCCCCCCC/C=C1/CC(CO)(COC(=O)C2CCCCC2)OC1=O (stereo not given) | > 100 µM | > 100 µM | > 100 µM | > 100 µM | > 100 µM | > 100 µM | > 100 µM | > 100 µM | > 100 µM | > 100 µM
3 | CN1CN(c2ccccc2)C2(CCN(C(=O)OC(C)(C)C)CC2)C1=O | > 100 µM | > 100 µM | > 100 µM | > 100 µM | > 100 µM | > 100 µM | > 100 µM | > 100 µM | > 100 µM | > 100 µM
4 | CN(C)CC(O)CNC(=O)Nc1ccccc1 (stereo not given) | > 100 µM | > 100 µM | > 100 µM | > 100 µM | > 100 µM | > 100 µM | > 100 µM | > 100 µM | > 100 µM | > 100 µM
5 | COc1cc(/C=[N+](\[O-])c2ccccc2Cl)ccc1OC(=S)S | > 100 µM | > 100 µM | 57.7 µM | > 100 µM | > 100 µM | > 100 µM | > 100 µM | > 100 µM | 41.8 µM | > 100 µM
6 | C=C1C(O)C2OC(=O)C(=C)C2C(OC(=O)/C(C)=C/C)CC2(C)OC2C2OC12 (stereo not given) | > 100 µM | 33 µM | > 100 µM | > 100 µM | > 100 µM | 14.8 µM | 15.5 µM | 22.6 µM | 11.6 µM | > 100 µM
7 | O=C1C(Nc2ccc(S(=O)(=O)Nc3cnc4ccccc4n3)cc2)=CC(=Nc2ccc(S(=O)(=O)Nc3cnc4ccccc4n3)cc2)c2ccccc21 | 39.5 µM | 36.1 µM | 34 µM | 33 µM | > 65.2 µM | 30.6 µM | > 54.9 µM | 42.4 µM | 31 µM | 43.7 µM
8 | COC(=O)c1cc(NC(=O)Cn2c3ccccc3c3ccccc32)cn1C | > 100 µM | > 100 µM | > 100 µM | > 100 µM | > 100 µM | > 100 µM | > 100 µM | > 100 µM | > 100 µM | 58.5 µM
9 | COc1cc2c(cc1OC)C/C(=N\O)c1cc(OC)c(OC)cc1/C=C\2 | 73.3 µM | > 100 µM | 4.05 µM | > 45 µM | > 48.8 µM | > 100 µM | > 100 µM | > 96.4 µM | 95.8 µM | 45.5 µM
10 | COC(=O)[C@@]1(Cc2ccc(OC(C)=O)cc2)Cc2cc3ccccc3n2N1 | > 100 µM | > 100 µM | > 100 µM | > 100 µM | 52.1 µM | > 100 µM | > 100 µM | > 100 µM | > 100 µM | > 100 µM
11 | CC(=O)OC1CC[C@@]2(C)C(=CC[C@@H]3[C@@H]2CC[C@]2(C)Nc4c(cnn4-c4ccc(F)cc4)C[C@@H]32)C1 (stereo not given in full) | > 100 µM | > 100 µM | > 100 µM | > 100 µM | > 100 µM | > 100 µM | > 100 µM | > 95.6 µM | > 84.1 µM | > 100 µM
12 | CCc1c[n+]2c(cc1C1=CN3c4ccccc4[C@]45CCN6C/C(=C/CO)[C@H](C[C@H]64)[C@@H]([C@@H]1O)[C@H]35)-c1[nH]c3ccccc3c1CC2 | > 50 µM | > 50 µM | > 50 µM | > 50 µM | > 50 µM | > 50 µM | > 50 µM | > 50 µM | > 50 µM | > 50 µM
13 | CN1C(=O)c2c(c3c4ccccc4n(C)c3c3c2c2ccccc2n3C)C1=O | > 100 µM | > 100 µM | > 100 µM | > 100 µM | > 100 µM | > 100 µM | > 100 µM | > 100 µM | > 100 µM | > 100 µM
14 | OC[C@H](O)[C@@H](OCc1ccccc1)[C@H](NCc1ccccc1)c1cccs1 | > 100 µM | > 100 µM | > 100 µM | > 100 µM | > 100 µM | > 100 µM | > 100 µM | > 100 µM | > 100 µM | > 100 µM
15 | CCOC(=O)C(NS(=O)(=O)c1ccccc1)(C(F)(F)F)P(=O)(OCC(C)C)OCC(C)C (stereo not given) | > 100 µM | > 100 µM | > 100 µM | > 100 µM | > 100 µM | > 100 µM | > 100 µM | > 100 µM | > 100 µM | > 100 µM
16 | COc1cc2ccnc3c2c(c1OC)N(C)C=C3 | > 100 µM | 61.6 µM | 80.4 µM | > 100 µM | > 100 µM | > 100 µM | 46.4 µM | 44.6 µM | > 100 µM | 54.1 µM
